Source: PMC4322620 (Frontiers in Pharmacology, 2015)

What was measured:
thermal pain = settings: mouse, in vivo, ip, 4 mg/kg
acute thermal pain = settings: mouse, in vivo, ip, 4 mg/kg

`CC12CC3CC(C)(C1)CC(N)(C3)C2` [Memantine] was tested, and the “Hot plate (latency to hindlimb response)” value (thermal pain) was 7.9 ± 0.49 s and the Tail flick latency (acute thermal pain) was 4.836 ± 0.264 s.
